One may read the IC50 as the concentration at which inhibition is half-maximal.

In one assay the target is T1, recombinant human MMP-13 (Homo sapiens, UniProt P45452).
T1 construct: made in house; host or cells: baculovirus (pBlueBac4 / Bac-N-Blue; virus made in Sf9), expressed in High-Five insect cells; culture supernatant used
Description: Assay of MMP-13 inhibiting activity (fluorogenic peptide substrate). As to conditions: Table 1; 37° C., 2 hours. Type of assay: biochemical. The method in brief: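 Baculovirus-expressed human MMP-13 (High-Five cell supernatant) in pH 7.5 Tris buffer with 200 mM NaCl, 20 mM CaCl2, 0.1% Brij 35, 1 mM 2-mercaptoethanol; reaction started with 40 μM (stock) MOCAc-PLGL-A2pr(DNP)-AR-NH2, 2 h at 37 °C, stopped at pH 3.0. Fluorescence 330/405 nm; IC50 versus no-compound control.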
Regarding `O=C1CC(SCc2ccccc2)C(=O)N1Cc1ccc(Oc2ccccc2)cc1` (stereo not shown) [Example 4, 3-Benzylthio-1-(4-phenoxybenzyl)pyrrolidine-2,5-dione], the IC50 is above 10000 nM.
For the compound `CC(=O)SC1CC(=O)N(Cc2ccc(Oc3ccccc3)cc2)C1=O` (stereo not shown) [Example 5, 3-Acetylthio-1-(4-phenoxybenzyl)pyrrolidine-2,5-dione], the IC50 turned out to be 30 nM.

The assay is the same for the next values; noted with them: Table 3; 37° C., 2 hours.
Consider `COC(=O)c1ccc(CS[C@@H]2CC(=O)N(Cc3ccc(Oc4ccccc4)cc3)C2)cc1` [Example 95, Methyl 4-({[(3R)-5-oxo-1-(4-phenoxybenzyl)pyrrolidinyl]sulfanyl}methyl)benzoate], for which the IC50 came to 400 nM.
Same read-out and setting: under `O=C(O)CCSS[C@@H]1CC(=O)N(Cc2ccc(Oc3ccccc3)cc2)C1` [Example 85] stands 460 nM; under `CC(C)(C)OC(=O)CC(=O)S[C@@H]1CC(=O)N(Cc2ccc(Oc3ccccc3)cc2)C1` [Example 72, t-Butyl 3-oxo-3-{[(3R)-5-oxo-1-(4-phenoxybenzyl)pyrrolidinyl]sulfanyl}propanoate], 2.4 nM.
As to `O=C(O)CC(=O)S[C@@H]1CC(=O)N(Cc2ccc(Oc3ccccc3)cc2)C1` [Example 73, 3-Oxo-3-{[(3R)-5-oxo-1-(4-phenoxybenzyl)pyrrolidinyl]sulfanyl}propanoic acid], the IC50 worked out at 11 nM.
Consider `O=C1C[C@@H](SCN2C(=O)c3ccccc3C2=O)CN1Cc1ccc(Oc2ccccc2)cc1` [Example 104, 2-({[(3R)-5-oxo-1-(4-phenoxybenzyl)pyrrolidinyl]sulfanyl}methyl)-1H-isoindole-1,3-(2H)-dione], for which the IC50 turned out to be 200 nM.
As for `O=C(SC1CC(=O)N(Cc2ccc(Oc3ccccc3)cc2)C1)C(c1ccccc1)c1ccccc1` (stereo not drawn) [Example 70, S-[5-oxo-1-(4-phenoxybenzyl)-3-pyrrolidinyl] 2,2-diphenylethanethioate], the IC50 came out at 2 nM.
Regarding `CCNC(=O)S[C@@H]1CC(=O)N(Cc2ccc(Oc3ccccc3)cc2)C1` [Example 51, S-[(3R)-5-oxo-1-(4-phenoxybenzyl)pyrrolidinyl]ethylthiocarbamate], the IC50 came to 1 nM.
Consider `CC(=O)NCS[C@@H]1CC(=O)N(Cc2ccc(Oc3ccccc3)cc2)C1` [Example 100, N-({[(3R)-5-Oxo-1-(4-phenoxybenzyl)pyrrolidinyl]sulfanyl}methyl)acetamide], for which the IC50 is 2000 nM.
In the case of `CCOC(=O)CCNC(=O)S[C@@H]1CC(=O)N(Cc2ccc(Oc3ccccc3)cc2)C1` [Example 60, Ethyl [({[(3R)-5-oxo-1-(4-phenoxybenzyl)pyrrolidinyl]sulfanyl}carbonyl)amino]propanoate], the IC50 is 0.9 nM.

The assay is the same for the next values; noted with them: Table 4; 37° C., 2 hours.
Take `O=C1CC(S)CN1Cc1cccc(Oc2ccccc2)c1` (stereo not shown) [Example 41, 4-Mercapto-1-(3-phenoxybenzyl)pyrrolidin-2-one]: the IC50 is 200 nM.

Still in this assay, the particulars now being: Table 5; 37° C., 2 hours.
`CC(=O)S[C@@H]1CC(=O)N(Cc2ccc(Oc3ccccc3)cc2)[C@H]1CC(C)C` (relative stereo) [Example 179, trans-4-Acetylthio-5-isobutyl-1-(4-phenoxybenzyl)pyrrolidin-2-one]: the IC50 came out at 9 nM.
The same measure, in the same setting: with `CC(=O)S[C@@H]1CC(=O)N(Cc2ccc(Oc3ccccc3)cc2)[C@H]1COCc1ccccc1` (relative stereo) [Example 38, Trans-4-acetylthio-5-benzyloxymethyl-1-(4-phenoxybenzyl)pyrrolidin-2-one] the figure was 5 nM; with `NC(=O)C1C(S)CC(=O)N1Cc1ccc(Oc2ccccc2)cc1` (stereo not drawn) [Example 188, trans-5-Aminocarbonyl-4-mercapto-1-(4-phenoxybenzyl)pyrrolidin-2-one], 13 nM; with `C[C@H]1[C@@H](S)CC(=O)N1Cc1ccc(Oc2ccccc2)cc1` [Example 176, (4S,5S)-4-Mercapto-5-methyl-1-(4-phenoxybenzyl)pyrrolidin-2-one], 50 nM.

The same assay, now with this note: Table 6; 37° C., 2 hours.
Consider `CC1C(=O)N(Cc2ccc(Oc3ccccc3)cc2)CC1S` (stereo not drawn) [Example 195, trans-4-Mercapto-3-methyl-1-(4-phenoxybenzyl)pyrrolidin-2-one], for which the IC50 amounted to 6 nM.

The same assay, now with this note: Table 7; 37° C., 2 hours.
On to `O=C1C[C@@H](SS[C@@H]2CC(=O)N(Cc3ccc(Oc4ccccc4)cc3)C2)CN1Cc1ccc(Oc2ccccc2)cc1` [Example 26, (4R,4′R)-4,4′-Dithiobis[1-(4-phenoxybenzyl)pyrrolidin-2-one]], for which the IC50 turned out to be 70 nM.
`O=C1CC(SC2CC(=O)N(Cc3ccc(Oc4ccccc4)cc3)C2=O)C(=O)N1Cc1ccc(Oc2ccccc2)cc1` (stereo not shown) [Example 14]: the IC50 was found to be 100 nM.

Staying with this assay, now noted: Table 9; 37° C., 2 hours.
`O=C1CC(S)CN1Cc1ccc(Oc2ccc([N+](=O)[O-])cc2)cc1` (stereo not shown) [Example 143, 4-Mercapto-1-[4-(4′-nitrophenoxy)benzyl]pyrrolidin-2-one]: the IC50 amounted to 11 nM.
Regarding `CC(=O)SC1CC(=O)N(Cc2ccc(Oc3ccc(O)cc3)cc2)C1` (stereo not shown) [Example 136, 4-Acetylthio-1-[4-(4′-hydroxyphenoxy)benzyl]pyrrolidin-2-one], the IC50 stood at 9 nM.
On the same count and under the same terms, under “(R)-4-Acethylthio-1-[4-(4-chlorophenoxy)benzyl]pyrrolidin-2-one [Example 125]” stands 6.1 nM.
On the same count and under the same terms, under `O=C1CC(S)CN1Cc1ccc(Oc2ccc(C(F)(F)F)cc2)cc1` (stereo not shown) [Example 130, 4-Mercapto-1-{4-[4′-(trifluoromethyl)phenoxy]benzyl}pyrrolidin-2-one] stands 10 nM; under `CC(=O)SC1CC(=O)N(Cc2ccc(Oc3ccc(F)c(F)c3)cc2)C1` (stereo not shown) [Example 121, 4-Acetylthio-1-[4-(3′,4′-difluorophenoxy)benzyl]pyrrolidin-2-one], 20 nM; under `CS(=O)(=O)Nc1cc(CN2CC(S)CC2=O)ccc1Oc1ccccc1` (stereo not shown) [Example 153, 4-Mercapto-1-(3-methylsulfonylamino-4-phenoxybenzyl)pyrrolidin-2-one], 4000 nM.
Take `COc1ccc(Oc2ccc(CN3CC(SC(C)=O)CC3=O)cc2)cc1` (stereo not shown) [Example 36, 4-Acetylthio-1-(4-(4′-methoxyphenoxy)benzyl)pyrrolidin-2-one]: the IC50 came to 50 nM.
With `CCNC(=O)Nc1ccc(Oc2ccc(CN3CC(SC(C)=O)CC3=O)cc2)cc1` (stereo not shown) [Example 148, 4-Acetylthio-1-[4-(4′-ethylaminocarbonylaminophenoxy)benzyl]pyrrolidin-2-one], the IC50 turned out to be 25 nM.
In the case of `CC(=O)Nc1ccc(Oc2ccc(CN3CC(SC(C)=O)CC3=O)cc2)cc1` (stereo not shown) [Example 144, 4-Acetylthio-1-[4-(4′-acetoaminophenoxy)benzyl]pyrrolidin-2-one], the IC50 was found to be 2.7 nM.
Same read-out and setting: under `NC(=O)c1ccc(Oc2ccc(CN3CC(S)CC3=O)cc2)cc1` (stereo not shown) [Example 135, 4-Mercapto-1-[4-(4′-aminocarbonylphenoxy)benzyl]pyrrolidin-2-one] stands 9.2 nM; under `O=C1CC(S)CN1Cc1ccc(Oc2ccc(F)c(F)c2)cc1` (stereo not shown) [Example 122, 4-Mercapto-1-[4-(3′,4′-difluorophenoxy)benzyl]pyrrolidin-2-one], 20 nM; under `CC(=O)S[C@H]1CC(=O)N(Cc2ccc(Oc3ccc(F)cc3)cc2)C1` [Example 116, (S)-4-Acethylthio-1-[4-(4′-fluorophenoxy)benzyl)pyrrolidin-2-one], 7000 nM.
As to `O=C1C[C@@H](S)CN1Cc1ccc(Oc2ccc(F)cc2)cc1` [Example 118, (R)-4-Mercapto-1-[4-(4′-fluorophenoxy)benzyl]pyrrolidin-2-one], the IC50 worked out at 2 nM.
On the same count and under the same terms, under `CC(=O)SC1CC(=O)N(Cc2ccc(Oc3ccccc3)c([N+](=O)[O-])c2)C1` (stereo not shown) [Example 151, 4-Acetylthio-1-(3-nitro-4-phenoxybenzyl)pyrrolidin-2-one] stands above 10000 nM.

Still in this assay, the particulars now being: Table 10; 37° C., 2 hours.
Take `CC(=O)SC1CC(=O)N(Cc2ccc(COc3ccccc3)cc2)C1` (stereo not shown) [Example 163, 4-Acetylthio-1-(4-phenoxymethylbenzyl)pyrrolidin-2-one]: the IC50 was 500 nM.
Take `CC(=O)SC1CC(=O)N(C(=O)c2ccc(Oc3ccccc3)cc2)C1` (stereo not drawn) [Example 196, S-[5-Oxo-1-(4-phenoxybenzoyl)-3-pyrrolidinyl]ethanethioate]: the IC50 is above 10000 nM.
Same read-out and setting: under `CC(=O)SC1CC(=O)N(Cc2ccc([S+]([O-])c3ccccc3)cc2)C1` (stereo not shown) [Example 171, 4-Acetylthio-1-(4-phenylsulfinylbenzyl)pyrrolidin-2-one] stands above 10000 nM.

The same assay, now with this note: Table 11; 37° C., 2 hours.
With `O=C1CC(S)CN1Cc1ccc2oc3ccccc3c2c1` (stereo not shown) [Example 202, 4-Mercapto-1-(2-dibenzofuranmethyl)pyrrolidin-2-one], the IC50 came out at 100 nM.
Same read-out and setting: under `CC(=O)S[C@@H]1CC(=O)N(Cc2ccc(Oc3ccc4c(c3)OCO4)cc2)C1` [Example 198, S-{(3R)-1-{4-(1,3-benzodioxol-5-yloxy)benzyl]-5-oxopyrrolidinyl}ethanethioate] stands 12 nM; under `CC(=O)SC1CC(=O)N(Cc2ccc(N(c3ccccc3)S(=O)(=O)c3ccc(C)cc3)cc2)C1` (stereo not shown) [Example 203, 4-Acetylthio-1-[4-(N-phenyl-N-p-toluenesulfonyl)aminobenzyl]pyrrolidin-2-one], above 10000 nM.

Staying with this assay, now noted: Table 12; 37° C., 2 hours.
Regarding `CC(=O)SC1CCC(=O)N(Cc2ccc(Oc3ccccc3)cc2)C1` (stereo not drawn) [Example 108, S-[6-Oxo-1-(4-phenoxybenzyl)-3-piperidinyl]ethanethioate], the IC50 is 300 nM.
For `O=C1CC(S)CCN1Cc1ccc(Oc2ccccc2)cc1` (stereo not shown) [Example 111, 1-(4-Phenoxybenzyl)-4-sulfanyl-2-piperidinone], the IC50 is 17 nM.

The assay is the same for the next values; noted with them: Table 13; 37° C., 2 hours.
`O=C(SC1CCCN(Cc2ccc(Oc3ccccc3)cc2)C1=O)c1ccccc1` (stereo not shown) [Example 47, 3-Benzoylthio-1-(4-phenoxybenzyl)piperidin-2-one]: the IC50 was 4000 nM.
Consider `CC(=O)SC1CCC(=O)N(Cc2ccc(Oc3ccccc3)cc2)C1=O` (stereo not shown) [Example 42, 3-Acetylthio-1-(4-phenoxybenzyl)piperidine-2,6-dione], for which the IC50 came to 70 nM.

Source of the values: US6953789B2, “Thiol compounds, their production and use” (Takeda Chemical Industries, Ltd., priority 1998, dated 2005).
